According to patent US5049372A, “Anticancer activities in a host by increasing blood and plasma adenosine 5'-triphosphate (ATP) levels” (priority 1988, dated 1991):
Where two headings read alike, the source gives them in different places.

How the values were obtained:
CT26 tumors = assay: Growth inhibition of s.c. footpad CT26 tumors in CB6F1 mice by daily i.p. adenine nucleotides (Table 1); type: in vivo, mouse; details: for inhibition at 25000 µM: Mus musculus, CT26, 360 h, 1 ml of 25 mM, based on tumor weights
Method: The tumor cell lines employed were CT26, a mouse undifferentiated, aggressive colon carcinoma, and CAPAN-1, a well-differentiated human pancreatic adenocarcinoma. […] The cells are shown to be free of Mycoplasma contamination. Cells are cultured at 37° C. in a humidified atmosphere of 5% CO2 /95% air in MEM supplemented with antibiotics (100 units of penicillin per ml and 100 μg streptomycin per ml), L-glutamine (2 mM), non-essential amino acids (0.1 mM), sodium pyruvate (1 mM), and 10% fetal bovine serum.
In the tests, females and males CB6F1 mice (a standard F1 hybrid of BALB/C and C57BL/6) obtained from Jackson Laboratories, Bar Harbor, Maine and athymic outbred NCr nu/nu mice (males and females) from the Department of Radiation Medicine, Massachusetts General Hospital, Boston, Mass. 02114 are used. All the mice are kept for at least two weeks before inoculation of the tumors and the start of treatment and are 7-9 weeks old (CB6F1) or 6-7 weeks old (athymic nu/nu) at the start of the procedure. Animals weigh 20-25 g (females) or 23-28 g (males), are housed 5-12 per cage, and have ad libitum access to food and water.
Tumor cells are removed from subconfluent cultures by a mild trypsin-EDTA treatment, the cell pellet is washed once with MEM without serum and the cells are suspended at the desired cell numbers in PBS (phosphate-bufferedsaline, 8 g NaCl, 0.2 g KCl, 1.15 g Na2 HPO4.7H2 O, and 0.2 g KH2 PO4 per liter). Cell suspensions are shown to be at least 90% viable by trypan blue exclusion. Mice are injected subcutaneously in the right hind footpad with tumor cells suspended in 50 μl of PBS. The regular protocol (unless otherwise stated) consists of daily i.p. injections of 1 ml of 0.85% NaCl solution or 1 ml of 50 mM of AMP, ADP, or ATP in 0.85% NaCl (from stock solutions adjusted to pH 6.2) starting one day after tumor inoculation and given for ten consecutive days.
Injections are administered with 30 gauge needles and the mice are lightly anesthetized with ether. The mice are weighed before the start of treatment and once a week during and after treatment. After the tumors become palpable, tumor sizes are determined every three days. The animals are sacrificed, tumors are excised and weighed before they reach 10% of the animals' weight.
The growth inhibitory properties of adenine nucleotides against CT26 murine colon carcinoma, which are inoculated s.c. in the hind footpad of CB6F1 mice, are illustrated in Table 1 hereinbelow. […] No significant differences between males and females are observed either in the rate of tumor growth or in the tumor's response to adenine nucleotides treatment.

[1] = tested on: CT26 colon adenocarcinoma; assay: Growth inhibition of footpad CT26 colon adenocarcinoma in CB6F1 mice, second series (FIGS. 2 and 3); type: in vivo, mouse; details: for Anticancer activities against established footpad CT26 colon adenocarcinoma: CB6F1 mice, in words; for Inhibition of growth of palpable CT26 tumors (in words): daily i.p. in 2.2 ml saline, pH 6.2, 12 days, starting after tumors palpable, equimolar amounts
Method: A further series of tests are conducted whereby tumors are inoculated by injections of 2.5×10^5 CT26 cells (over 90% viability) in 50 μl of phosphate-buffered saline into the right hind footpad of CB6F1 mice. The treatments were initiated at a variety of times after inoculation of the tumors. The injection schedules started either 1 or 5 days after tumor inoculation when none of the tumors are palpable or when the tumors are clearly palpable (average calculated weight of 100 mg), which occur in 100% of the inoculated mice after 8-11 days. Mice are randomized, divided into groups, and injected daily with 2.2 ml of saline, adenosine, AMP, or ATP (compounds are in sterile saline solutions at concentrations of 25 mM with AMP and ATP solutions adjusted to pH 6.2). Injections are administered intraperitoneally with 30 gauge needles and the mice are lightly anesthetized with […]. The mice are weighed and tumor sizes measured before the start of the treatment schedule and every three days during and after the treatment schedule. These determinations are performed before injections during the treatment period.
In particular, see FIG. 2. FIG. 2 illustrates inhibition of tumor growth (---) and host weight loss (-) in tumor-bearing mice by treatment with adenine nucleotides. Mice (CB6F1, 8 week old males) bearing palpable CT26 footpad tumors (on day 9 after tumor inoculation) are treated with saline (.smallcircle.), adenosine (o), AMP (Δ), or ATP (.quadrature.) as described herein. An untreated group is also included (x). Arrows indicate days of injection.
The magnitude of the antitumor activities of AMP and ATP depends to a small extent on the pH of the solution administered intraperitoneally. This property is probably related to the number of negative charges on the phosphate groups (the pKa of the secondary phosphate is around 6.6). AMP and especially ATP have some buffering capacity, and at a pH below 6.6 they carry a smaller net charge than at a physiological pH. The lower charge of these molecules enhances the initial (first hour) transport of AMP and ATP across the peritoneal membrane and into the systemic circulation (see Torres, et al., 1978, Pharmacol., 17, 330-340). […] The treatment schedule of palpable CT26 tumors which is illustrated in FIG. 2 consistently yields 10-20% of "cures". These mice remain tumor-free for at least two months.
FIG. 3 further illustrates inhibition of host weight loss in tumor-bearing animals by treatment with adenine nucleotides. Mice (CB6F1, males, 7 weeks old, in A, 10 weeks old in B, […]) with saline (.smallcircle.), adenosine (o), AMP (Δ), or ATP (.quadrature.) are initiated 1 day (A), 5 days (B), or 9 days after tumor inoculation (when all the tumors were palpable) (C). Arrows indicate days of injection. Experimental procedures were outlined in the text.

[2] = experiment 6, 10 F per group, 0.5 × 10^5 cells, day 18, 1 ml of 50 mM i.p. daily (Ap4A 10 mM)
[3] = experiment 1, 10 F per group, 0.5 × 10^6 cells, day 15, 1 ml of 25 mM i.p. daily
[4] = experiment 2, 10 M per group, 0.5 × 10^6 cells, day 15, 1 ml of 25 mM i.p. daily

Nc1ncnc2c1ncn2[C@@H]1O[C@H](COP(=O)(O)OP(=O)(O)OP(=O)(O)OP(=O)(O)OC[C@H]2O[C@@H](n3cnc4c(N)ncnc43)[C@H](O)[C@@H]2O)[C@@H](O)[C@H]1O [AP4 A, reference compound]
Tumor diameter (CT26 tumors; [2]): 0.9 ± 0.3 cm
Tumor weight (CT26 tumors; [2]): 0.74 ± 0.21 g

Nc1ncnc2c1ncn2[C@@H]1O[C@H](COP(=O)(O)OP(=O)(O)OP(=O)(O)O)[C@@H](O)[C@H]1O [ATP-MgCl2]
inhibition at 25000 µM (CT26 tumors; read-out: Inhibition of tumor growth (% of saline-treated), experiment 1, 10 F per group, 0.5 × 10^6 cells, day 15): 18%
inhibition at 25000 µM (CT26 tumors; read-out: Inhibition of tumor growth (% of saline-treated), experiment 2, 10 M per group, 0.5 × 10^6 cells, day 15): 26%
Tumor diameter (CT26 tumors; [3]): 1.4 ± 0.2 cm
Tumor weight (CT26 tumors; [3]): 1.59 ± 0.24 g
Tumor diameter (CT26 tumors; [4]): 1.4 ± 0.3 cm
Tumor weight (CT26 tumors; [4]): 1.38 ± 0.40 g

O=P(O)(O)O [inorganic phosphate, reference compound]
Anticancer activities against established footpad CT26 colon adenocarcinoma [1]: without such effects
Inhibition of growth of palpable CT26 tumors (in words) [1]: without any effects on the growth of CT26 tumors

O=P(O)(O)OP(=O)(O)O [inorganic pyrophosphate, reference compound]
Anticancer activities against established footpad CT26 colon adenocarcinoma [1]: without such effects
Inhibition of growth of palpable CT26 tumors (in words) [1]: without any effects on the growth of CT26 tumors
